According to PubChem BioAssay AID2060891 (Molecular Pharmacology Branch, DTP, NCI, 2025):

Tested on: K98450-129-R-PDC complex spheroid growth, percent test/control
Test: Anticancer human tumor K98450-129-R-PDC patient-derived colon adenocarcinoma cell line growth inhibition [RAS]
Settings: for IC50: curve of first compound; for viability, T/C: stronger effect = lower value
Source text: RAS pathway inhibitors in Combinations in Complex Spheroids
A high-throughput screen of multi-cell type tumor spheroids was designed to identify active combinations of RAS pathway inhibitors and targeted small molecules. Complex spheroids include a stromal component modeled by human endothelial cells (HUVEC) and fibroblasts modeled by human mesenchymal stem cells (MSCs). The concentration ranges selected for each drug and investigational agent were based upon clinically achievable concentrations if the clinical Cmax of the agent was known.
Compounds. The drugs and investigational agents: abemaciclib (NSC768073), cobimetinib (NSC768068), divarasib (GDC6063, NSC841802), docetaxel (NSC628503), GDC-1971 (RLY-1971, NSC841576), gemcitabine (NSC613327), inavolisib (NSC800729), ipatasertib (NSC767898), KB-0742 (NSC834161), MRTX-1133 (NSC836407), osimertinib (NSC779217), RMC-4630 (NSC839698), RMC-6236 (NSC851965), RMC-6291 (NSC852671), Ro-3306 (NSC812927), sapanisertib (NSC764658), SN-38 (NSC673596), staurosporine (NSC755774), SY5609 (NSC837396), and tovorafenib (DAY101, NSC766906), were obtained from the National Cancer Institute (NCI) Developmental Therapeutics Program Chemical Repository. The FDA-approved anticancer drug set is available from the NCI Developmental Therapeutics Program. […] The stock solutions were prepared in dimethyl sulfoxide (DMSO, Sigma-Aldrich, St. Louis, MO, cat. D2650) at 800-fold the tested concentration and stored at -70 degrees C prior to their use. All drugs and investigational agents were tested over a range starting from a high concentration at or near the clinical Cmax and decreasing in half-log increments. If the clinical Cmax for an agent had not been determined, the highest concentration tested was 10 microM.
Cell Culture. All cells were maintained in an incubator at 37 degrees C and 5% CO2 with 95% humidity. The PDC lines were cultured according to standard operating procedures established by the NCI PDMR. All PDCs were thawed and cultured in Matrigel-coated flasks prepared with a working solution of 1X Ham's F-12 nutrient mix, without supplementation (Invitrogen, Waltham, MA, cat. 11765054), 100 U/mL penicillin-streptomycin (Invitrogen, cat. 15140122), and 2.5% Matrigel (Corning Inc., Corning, NY, cat. 354248) for the first three passages. The 362531-283-R-J2-PDC and 782815-120-R-J1-PDC lines were cultured in 6C/Colon 1B media, which includes advanced DMEM/F-12 (Thermo Fisher Scientific, cat. 12634028), 10 mM HEPES (Thermo Fisher Scientific, cat. 15630080), 1X GlutaMAX supplement (Thermo Fisher Scientific, cat. 35050061), 0.1 mg/mL primocin (InvivoGen, San Diego, CA, cat. ant-pm-2), 10% defined fetal bovine serum, heat inactivated (HyClone Laboratories Inc., Logan, UT, cat. SH30070.03HI), 50% L-WRN conditioned media (ATCC, cat. CRL-3276), 1.25 mM N-Acetyl-L-cysteine (Sigma-Aldrich, cat. A9165), 10 mM nicotinamide (Sigma-Aldrich, cat. N0636), 1X B-27 supplement (Thermo Fisher Scientific, cat. 17504044), 1X N-2 supplement (Thermo Fisher Scientific, cat. 17502048), 50 ng/mL human EGF (Thermo Fisher Scientific, cat. PHG0311), and 10 microM Y-27632 dihydrochloride (Tocris Bioscience, cat. 1254). The K12877-001-R-J1-PDC line was cultured in 6I media, which includes all 6C/Colon 1B media plus 10 ng/mL human FGF-10 (PeproTech, cat. 100-26), 1 ng/mL human FGF-2 (PeproTech, cat. 100-18B), 1 µM prostaglandin E2 (Tocris Bioscience, cat. 2296), […] hydrocortisone (Sigma-Aldrich, cat. H4001), and […] bovine insulin (Sigma-Aldrich, cat. I6634). The K86415-001-R-J1-PDC line was cultured in 6D media, which includes all 6C/Colon 1B media components minus the L-WRN conditioned media. The 485176-168-R4-J1-PDC was cultured in PANC media, which includes all 6C/Colon 1B media plus 100 ng/mL human FGF-10 (PeproTech, cat. 100-26), 500 nM SB-431542 (Selleckchem, cat. S1067), and 10 nM gastrin (Tocris Bioscience, cat. 3006). […]

[1] = second compound 0.0316 µM, first compound 0.0316 µM
[2] = second compound 0.0316 µM, first compound 0.1 µM
[3] = second compound 0.0316 µM, first compound 0.316 µM
[4] = second compound 0.0316 µM, first compound 1 µM
[5] = second compound 0.0316 µM, first compound 3.16 µM
[6] = second compound 0.0316 µM, first compound 10 µM
[7] = second compound 0.1 µM, first compound 0.0316 µM
[8] = second compound 0.1 µM, first compound 0.1 µM
[9] = second compound 0.1 µM, first compound 0.316 µM
[10] = second compound 0.1 µM, first compound 1 µM
[11] = second compound 0.1 µM, first compound 3.16 µM
[12] = second compound 0.1 µM, first compound 10 µM
[13] = second compound 0.316 µM, first compound 0.0316 µM
[14] = second compound 0.316 µM, first compound 0.1 µM
[15] = second compound 0.316 µM, first compound 0.316 µM
[16] = second compound 0.316 µM, first compound 1 µM
[17] = second compound 0.316 µM, first compound 3.16 µM
[18] = second compound 0.316 µM, first compound 10 µM
[19] = second compound 1 µM, first compound 0.0316 µM
[20] = second compound 1 µM, first compound 0.1 µM
[21] = second compound 1 µM, first compound 0.316 µM
[22] = second compound 1 µM, first compound 1 µM
[23] = second compound 1 µM, first compound 3.16 µM
[24] = second compound 1 µM, first compound 10 µM
[25] = second compound 3.16 µM, first compound 0.0316 µM
[26] = second compound 3.16 µM, first compound 0.1 µM
[27] = second compound 3.16 µM, first compound 0.316 µM
[28] = second compound 3.16 µM, first compound 1 µM
[29] = second compound 3.16 µM, first compound 3.16 µM
[30] = second compound 3.16 µM, first compound 10 µM
[31] = second compound 10 µM, first compound 0.0316 µM
[32] = second compound 10 µM, first compound 0.1 µM
[33] = second compound 10 µM, first compound 0.316 µM
[34] = second compound 10 µM, first compound 1 µM
[35] = second compound 10 µM, first compound 3.16 µM
[36] = second compound 10 µM, first compound 10 µM
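Note: spheroids exposed to agents for seven days before the viability readout.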
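Throughout, for viability, T/C: luminescence used as a proxy for viable cell amount.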

## CC1(O)CCCC1n1c(=O)c(C(F)F)cc2cnc(NC3CCN(S(C)(=O)=O)CC3)nc21 (stereo unspecified) + C#Cc1c(F)ccc2cc(O)cc(-c3ncc4c(N5CC6CCC(C5)N6)nc(OCC56CCCN5CC(F)C6)nc4c3F)c12
Second compound 0.0316 µM
  IC50: > 10 µM
Second compound 0.1 µM
  IC50: > 10 µM
Second compound 0.316 µM
  IC50: > 10 µM
Second compound 1 µM
  IC50: > 10 µM
Second compound 3.16 µM
  IC50: > 10 µM
Second compound 10 µM
  IC50: > 10 µM
[1]
  viability, T/C: 105%
[2]
  viability, T/C: 101%
[3]
  viability, T/C: 91.3%
[4]
  viability, T/C: 78.3%
[5]
  viability, T/C: 64.2%
[6]
  viability, T/C: 59.3%
[7]
  viability, T/C: 108%
[8]
  viability, T/C: 101%
[9]
  viability, T/C: 91.7%
[10]
  viability, T/C: 77.8%
[11]
  viability, T/C: 65.8%
[12]
  viability, T/C: 60.5%
[13]
  viability, T/C: 106%
[14]
  viability, T/C: 99.5%
[15]
  viability, T/C: 92.4%
[16]
  viability, T/C: 78.8%
[17]
  viability, T/C: 65.5%
[18]
  viability, T/C: 60.5%
[19]
  viability, T/C: 104%
[20]
  viability, T/C: 103%
[21]
  viability, T/C: 89.3%
[22]
  viability, T/C: 68.8%
[23]
  viability, T/C: 58.8%
[24]
  viability, T/C: 55.3%
[25]
  viability, T/C: 90.9%
[26]
  viability, T/C: 94.2%
[27]
  viability, T/C: 83.5%
[28]
  viability, T/C: 73.7%
[29]
  viability, T/C: 63.8%
[30]
  viability, T/C: 57.3%
[31]
  viability, T/C: 89.8%
[32]
  viability, T/C: 85.6%
[33]
  viability, T/C: 80%
[34]
  viability, T/C: 67.4%
[35]
  viability, T/C: 57.4%
[36]
  viability, T/C: 51%

## CCC(CC)c1cc(NC2CCC(N)C2)n2nccc2n1 (stereo unspecified) + C#Cc1c(F)ccc2cc(O)cc(-c3ncc4c(N5CC6CCC(C5)N6)nc(OCC56CCCN5CC(F)C6)nc4c3F)c12
Second compound 0.0316 µM
  IC50: 6.08 µM
Second compound 0.1 µM
  IC50: 5.51 µM
Second compound 0.316 µM
  IC50: 6.22 µM
Second compound 1 µM
  IC50: 5.71 µM
Second compound 3.16 µM
  IC50: 5.43 µM
Second compound 10 µM
  IC50: 4.67 µM
[1]
  viability, T/C: 99.8%
[2]
  viability, T/C: 102%
[3]
  viability, T/C: 103%
[4]
  viability, T/C: 106%
[5]
  viability, T/C: 93.7%
[6]
  viability, T/C: 16.3%
[7]
  viability, T/C: 105%
[8]
  viability, T/C: 108%
[9]
  viability, T/C: 102%
[10]
  viability, T/C: 98.3%
[11]
  viability, T/C: 81.7%
[12]
  viability, T/C: 16.9%
[13]
  viability, T/C: 105%
[14]
  viability, T/C: 117%
[15]
  viability, T/C: 108%
[16]
  viability, T/C: 97.7%
[17]
  viability, T/C: 94.8%
[18]
  viability, T/C: 20%
[19]
  viability, T/C: 104%
[20]
  viability, T/C: 99.8%
[21]
  viability, T/C: 99.4%
[22]
  viability, T/C: 101%
[23]
  viability, T/C: 82.4%
[24]
  viability, T/C: 19.1%
[25]
  viability, T/C: 91.7%
[26]
  viability, T/C: 97.1%
[27]
  viability, T/C: 94.9%
[28]
  viability, T/C: 84.7%
[29]
  viability, T/C: 79.1%
[30]
  viability, T/C: 18.9%
[31]
  viability, T/C: 84.2%
[32]
  viability, T/C: 90.2%
[33]
  viability, T/C: 88.2%
[34]
  viability, T/C: 89.4%
[35]
  viability, T/C: 68.5%
[36]
  viability, T/C: 14.1%

## CCN1CCN(Cc2ccc(Nc3ncc(F)c(-c4cc(F)c5nc(C)n(C(C)C)c5c4)n3)nc2)CC1 + C#Cc1c(F)ccc2cc(O)cc(-c3ncc4c(N5CC6CCC(C5)N6)nc(OCC56CCCN5CC(F)C6)nc4c3F)c12
Second compound 0.0316 µM
  IC50: > 1 µM
Second compound 0.1 µM
  IC50: > 1 µM
Second compound 0.316 µM
  IC50: > 1 µM
Second compound 1 µM
  IC50: > 1 µM
Second compound 3.16 µM
  IC50: > 1 µM
Second compound 10 µM
  IC50: 0.27 µM
Second compound 0.0316 µM, first compound 0.00316 µM
  viability, T/C: 110%
Second compound 0.0316 µM, first compound 0.01 µM
  viability, T/C: 105%
[1]
  viability, T/C: 99%
[2]
  viability, T/C: 92.4%
[3]
  viability, T/C: 72.2%
[4]
  viability, T/C: 74.4%
Second compound 0.1 µM, first compound 0.00316 µM
  viability, T/C: 109%
Second compound 0.1 µM, first compound 0.01 µM
  viability, T/C: 100%
[7]
  viability, T/C: 98.4%
[8]
  viability, T/C: 86.9%
[9]
  viability, T/C: 74.1%
[10]
  viability, T/C: 70.5%
Second compound 0.316 µM, first compound 0.00316 µM
  viability, T/C: 104%
Second compound 0.316 µM, first compound 0.01 µM
  viability, T/C: 106%
[13]
  viability, T/C: 97.6%
[14]
  viability, T/C: 89.6%
[15]
  viability, T/C: 74.5%
[16]
  viability, T/C: 67.4%
Second compound 1 µM, first compound 0.00316 µM
  viability, T/C: 107%
Second compound 1 µM, first compound 0.01 µM
  viability, T/C: 99.5%
[19]
  viability, T/C: 90.1%
[20]
  viability, T/C: 82.8%
[21]
  viability, T/C: 66.5%
[22]
  viability, T/C: 59.2%
Second compound 3.16 µM, first compound 0.00316 µM
  viability, T/C: 90.4%
Second compound 3.16 µM, first compound 0.01 µM
  viability, T/C: 94.6%
[25]
  viability, T/C: 95.8%
[26]
  viability, T/C: 75.6%
[27]
  viability, T/C: 62.8%
[28]
  viability, T/C: 53.6%
Second compound 10 µM, first compound 0.00316 µM
  viability, T/C: 85.7%
Second compound 10 µM, first compound 0.01 µM
  viability, T/C: 89.3%
[31]
  viability, T/C: 81.6%
[32]
  viability, T/C: 69.8%
[33]
  viability, T/C: 46.9%
[34]
  viability, T/C: 31.9%
